From patent US20180353483A1, “PHARMACEUTICAL COMPOSITIONS AND METHODS FOR INDOLEAMINE, 2, 3-DIOXYGENASE INHIBITION AND INDICATIONS THEREFOR” (Incyte Corporation, priority 2015, published 2018)
Read-outs that look alike come from different tables or passages of the source.

Experiment: Pharmacokinetics of Compound 1 in combination with MK-3475 in subjects with various cancers
Assay type: in vivo, human
Conditions: human, plasma, oral; for tmax: read-out: tmax; for concentration at 8 day (cycle 1): read-out: Cmin
Protocol: The subjects were not limited to a specific cancers and study include subjects with various cancers. […] One treatment cycle consisted of 21 days. […] Additional subjects were enrolled in a cohort to achieve the minimum of 3 evaluable subjects if dropouts or dose interruptions or reductions occur that result in a subject being non-evaluable for DLTs. […] An additional safety cohort was opened at 100 mg BID in parallel to 300 mg BID being tested. This may also be limited to subjects with melanoma, NSCLC, or specific cancer types from among those included in Phase 1. The RP2D was selected from the evaluated safety expansions.
If a dose was missed by more than 4 hours, that dose was skipped and was resumed at the scheduled time.
Pharmacokinetic samples were obtained at the visits of Cycle 1 Day 1, Cycle 1 Day 8 and Cycle 2 Day 1. […] The exact date and time of the PK blood draws were recorded in the eCRF along with the date and time of the last dose of study drug and details of the last meal preceding the blood draw.
The planned PK time points were used for preliminary PK analyses.

[1] = 100 mg BID, Diagnosis DLBCL, steady state C1D8, individual values of 2 subjects
[2] = 100 mg BID, Diagnosis GU, steady state C1D8, mean ± SD
[3] = 100 mg BID, Diagnosis NSCLC PD-L1 High, steady state C1D8, mean ± SD

NS(=O)(=O)NCCNc1nonc1C(=NO)Nc1ccc(F)c(Br)c1 [Compound 1, 4-({2-[(aminosulfonyl)amino]ethyl}amino)-N-(3-bromo-4-fluorophenyl)-N′-hydroxy-1,2,5-oxadiazole-3-carboximidamide] showed an AUC(0-t) (100 mg BID, All diagnoses, steady state C1D8, geometric mean, read-out: AUC0-12 h (converted)) of 4.26 µM·h, a Cmax (100 mg BID, All diagnoses, steady state C1D8, mean ± SD) of 1100 ± 467 nM and an AUC(0-t) (100 mg BID, All diagnoses, steady state C1D8, mean ± SD, read-out: AUC0-12 h (converted)) of 4.62 ± 2.14 µM·h. It also gave a Cmax [1] of 883 nM, an AUC(0-t) (100 mg BID, Diagnosis DLBCL, steady state C1D8, individual values of 2 subjects, read-out: AUC0-12 h (converted)) of 5.32 µM·h and a tmax [1] of 4 h. The Cmax (100 mg BID, Diagnosis GU, steady state C1D8, geometric mean) was 1030 nM, the AUC(0-t) (100 mg BID, Diagnosis GU, steady state C1D8, geometric mean, read-out: AUC0-12 h (converted)) was 4.41 µM·h and the Cmax [2] was 1100 ± 400 nM. For the same compound, the AUC(0-t) (100 mg BID, Diagnosis GU, steady state C1D8, mean ± SD, read-out: AUC0-12 h (converted)) was 4.98 ± 3.01 µM·h, the concentration at 8 day (cycle 1) [2] was 154 ± 203 nM and the Cmax (100 mg BID, Diagnosis MEL, steady state C1D8, geometric mean) was 945 nM. It also gave an AUC(0-t) (100 mg BID, Diagnosis MEL, steady state C1D8, geometric mean, read-out: AUC0-12 h (converted)) of 3.57 µM·h, a Cmax (100 mg BID, Diagnosis MEL, steady state C1D8, mean ± SD) of 1000 ± 347 nM and an AUC(0-t) (100 mg BID, Diagnosis MEL, steady state C1D8, mean ± SD, read-out: AUC0-12 h (converted)) of 3.68 ± 0.852 µM·h. For the same compound, the AUC(0-t) (100 mg BID, Diagnosis NSCLC PD-L1 High, steady state C1D8, geometric mean, read-out: AUC0-12 h (converted)) was 4.15 µM·h, the Cmax [3] was 939 ± 549 nM and the AUC(0-t) (100 mg BID, Diagnosis NSCLC PD-L1 High, steady state C1D8, mean ± SD, read-out: AUC0-12 h (converted)) was 4.43 ± 1.81 µM·h. The concentration at 8 day (cycle 1) [3] was 159 ± 77.7 nM, the tmax (100 mg BID, Diagnosis NSCLC PD-L1 High, steady state C1D8, median) was 3 h and the Cmax (100 mg BID, Diagnosis NSCLC PD-L1 Low/NE, steady state C1D8, geometric mean) was 867 nM. The AUC(0-t) (100 mg BID, Diagnosis NSCLC PD-L1 Low/NE, steady state C1D8, geometric mean, read-out: AUC0-12 h (converted)) was 4.3 µM·h, the Cmax (100 mg BID, Diagnosis NSCLC PD-L1 Low/NE, steady state C1D8, mean ± SD) was 879 ± 156 nM and the AUC(0-t) (100 mg BID, Diagnosis NSCLC PD-L1 Low/NE, steady state C1D8, mean ± SD, read-out: AUC0-12 h (converted)) was 4.35 ± 0.828 µM·h. For the same compound, the Cmax (100 mg BID, Diagnosis OC, steady state C1D8, geometric mean) was 1110 nM, the AUC(0-t) (100 mg BID, Diagnosis OC, steady state C1D8, geometric mean, read-out: AUC0-12 h (converted)) was 4.34 µM·h and the Cmax (100 mg BID, Diagnosis OC, steady state C1D8, mean ± SD) was 1200 ± 487 nM. The AUC(0-t) (100 mg BID, Diagnosis OC, steady state C1D8, mean ± SD, read-out: AUC0-12 h (converted)) was 4.66 ± 2.11 µM·h, the Cmax (100 mg BID, Diagnosis SCCHN, steady state C1D8, geometric mean) was 821 nM and the AUC(0-t) (100 mg BID, Diagnosis SCCHN, steady state C1D8, geometric mean, read-out: AUC0-12 h (converted)) was 3.81 µM·h. It also gave a Cmax (100 mg BID, Diagnosis SCCHN, steady state C1D8, mean ± SD) of 987 ± 612 nM, an AUC(0-t) (100 mg BID, Diagnosis SCCHN, steady state C1D8, mean ± SD, read-out: AUC0-12 h (converted)) of 4.29 ± 2.3 µM·h and a Cmax (100 mg BID, Diagnosis TNBC, steady state C1D8, geometric mean) of 1150 nM. The AUC(0-t) (100 mg BID, Diagnosis TNBC, steady state C1D8, geometric mean, read-out: AUC0-12 h (converted)) was 4.69 µM·h, the Cmax (100 mg BID, Diagnosis TNBC, steady state C1D8, mean ± SD) was 1210 ± 433 nM and the AUC(0-t) (100 mg BID, Diagnosis TNBC, steady state C1D8, mean ± SD, read-out: AUC0-12 h (converted)) was 5.01 ± 2.09 µM·h. It also gave a Cmax (100 mg BID, Dose Reduction By C4D1 subjects (Table 13), steady state C1D8, geometric mean) of 953 nM, an AUC(0-t) (100 mg BID, Dose Reduction By C4D1 subjects (Table 13), steady state C1D8, geometric mean, read-out: AUC0-12 h (converted)) of 4.42 µM·h and a Cmax (100 mg BID, Dose Reduction By C4D1 subjects (Table 13), steady state C1D8, mean ± SD) of 1040 ± 551 nM. For the same compound, the AUC(0-t) (100 mg BID, Dose Reduction By C4D1 subjects (Table 13), steady state C1D8, mean ± SD, read-out: AUC0-12 h (converted)) was 5.1 ± 3.59 µM·h, the Cmax (100 mg, All diagnoses, first dose, geometric mean) was 830 nM and the AUC(0-t) (100 mg, All diagnoses, first dose, geometric mean, read-out: AUC0-t) was 2.63 µM·h. For the same compound, the Cmax (100 mg, All diagnoses, first dose, mean ± SD) was 937 ± 469 nM, the AUC(0-t) (100 mg, All diagnoses, first dose, mean ± SD, read-out: AUC0-t) was 2.87 ± 1.19 µM·h and the AUC(0-t) (100 mg, Cohort 3, 100 mg BID, steady state C1D8, geometric mean, read-out: AUC0-12 h (converted)) was 3.67 µM·h. The Cmax (100 mg, Cohort 3, 100 mg BID, steady state C1D8, mean ± SD) was 956 ± 497 nM, the AUC(0-t) (100 mg, Cohort 3, 100 mg BID, steady state C1D8, mean ± SD, read-out: AUC0-12 h (converted)) was 3.91 ± 1.35 µM·h and the Cmax (100 mg, Cohort 3, 100 mg, first dose, geometric mean) was 521 nM. The AUC(0-t) (100 mg, Cohort 3, 100 mg, first dose, geometric mean, read-out: AUC0-t) was 1.89 µM·h, the Cmax (100 mg, Cohort 3, 100 mg, first dose, mean ± SD) was 632 ± 508 nM and the AUC(0-t) (100 mg, Cohort 3, 100 mg, first dose, mean ± SD, read-out: AUC0-t) was 2.09 ± 1.15 µM·h. For the same compound, the tmax (100 mg, Cohort 3, 100 mg, first dose, median) was 4 h, the AUC(0-t) (100 mg, Cohort 5, 100 mg BID, steady state C1D8, geometric mean, read-out: AUC0-12 h (converted)) was 3.53 µM·h and the Cmax (100 mg, Cohort 5, 100 mg BID, steady state C1D8, mean ± SD) was 905 ± 421 nM. For the same compound, the AUC(0-t) (100 mg, Cohort 5, 100 mg BID, steady state C1D8, mean ± SD, read-out: AUC0-12 h (converted)) was 3.79 ± 1.43 µM·h, the Cmax (100 mg, Cohort 5, 100 mg, first dose, geometric mean) was 787 nM and the AUC(0-t) (100 mg, Cohort 5, 100 mg, first dose, geometric mean, read-out: AUC0-t) was 2.46 µM·h. It also gave a Cmax (100 mg, Cohort 5, 100 mg, first dose, mean ± SD) of 852 ± 340 nM, an AUC(0-t) (100 mg, Cohort 5, 100 mg, first dose, mean ± SD, read-out: AUC0-t) of 2.58 ± 0.778 µM·h and a tmax (100 mg, Cohort 5, 100 mg, first dose, median) of 1.5 h. For the same compound, the Cmax (100 mg, Diagnosis DLBCL, first dose, geometric mean) was 664 nM.
